US10752884B2, “Method of inducing beta cells from urine-derived cells using small molecules” (UNIVERSITY OF SOUTH AUSTRALIA, priority 2014, dated 2020)

How the values were obtained:
ALK3 = ALK3 (Homo sapiens, UniProt P36894); conditions: cited from earlier work
ALK1 = ALK1 (Homo sapiens, UniProt P37023); conditions: cited from earlier work
ALK4 = conditions: cited from earlier work
ALK2 = target: T1, ALK2 (Homo sapiens, UniProt Q04771); conditions: cited from earlier work
T1 sequence (Q04771 21-509): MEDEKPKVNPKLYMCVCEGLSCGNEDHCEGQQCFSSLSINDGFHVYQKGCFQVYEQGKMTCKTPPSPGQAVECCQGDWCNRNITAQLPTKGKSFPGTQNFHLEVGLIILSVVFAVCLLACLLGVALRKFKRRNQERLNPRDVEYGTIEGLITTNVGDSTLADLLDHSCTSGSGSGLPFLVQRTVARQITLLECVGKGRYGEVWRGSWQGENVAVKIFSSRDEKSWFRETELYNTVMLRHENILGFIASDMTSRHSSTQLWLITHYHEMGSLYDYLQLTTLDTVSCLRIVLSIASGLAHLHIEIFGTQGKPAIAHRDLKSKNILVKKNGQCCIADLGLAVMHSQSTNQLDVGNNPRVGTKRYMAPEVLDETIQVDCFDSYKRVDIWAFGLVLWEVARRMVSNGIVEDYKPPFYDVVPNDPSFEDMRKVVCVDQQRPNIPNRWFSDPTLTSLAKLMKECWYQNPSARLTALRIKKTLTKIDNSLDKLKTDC

ALK6 = ALK6 (Homo sapiens, UniProt O00238); conditions: cited from earlier work
Chain of ALK6 (O00238 14-502): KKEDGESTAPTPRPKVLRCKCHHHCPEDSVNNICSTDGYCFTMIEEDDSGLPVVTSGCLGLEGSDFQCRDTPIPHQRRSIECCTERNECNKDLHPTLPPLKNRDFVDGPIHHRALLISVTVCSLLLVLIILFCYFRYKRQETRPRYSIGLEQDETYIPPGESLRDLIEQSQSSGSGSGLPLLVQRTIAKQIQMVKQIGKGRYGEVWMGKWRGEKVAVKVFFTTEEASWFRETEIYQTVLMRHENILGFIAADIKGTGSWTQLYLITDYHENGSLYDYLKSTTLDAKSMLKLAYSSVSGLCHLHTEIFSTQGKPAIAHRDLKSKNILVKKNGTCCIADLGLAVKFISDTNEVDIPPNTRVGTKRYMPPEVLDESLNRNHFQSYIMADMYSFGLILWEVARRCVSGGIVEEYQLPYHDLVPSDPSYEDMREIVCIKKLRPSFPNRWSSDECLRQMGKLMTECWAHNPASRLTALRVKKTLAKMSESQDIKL

TGF-β-induced EMT = conditions: via the inhibition of Smad2 phosphorylation; cited from earlier work
human urine cells (HUC) = test: Secondary induction, cell morphology by phase contrast microscopy; assay type: cell-based; conditions: after Example 2 primary induction; 330 nm Indolactam V, four days
Procedure: HUC-M-35 P5 cells were prepared using the primary induction protocol described in Example 2. The cells were then cultured in a secondary induction medium containing DMEM, […] Indolactam V, 1×2 mM L-glutamine (Life Technologies, Cat No. 25030-081), and 1×B27 (Life Technologies, Cat No. 17504044) and p/s as detailed above for four days. The morphology of the resultant cells was examined by phase contrast microscopy.
HUC-M-35 P5 cells were induced using the primary induction protocol described in Example 2. […] The morphology of the resultant cells was assessed by phase contrast microscopy.

Chain of ALK3 (P36894 24-532): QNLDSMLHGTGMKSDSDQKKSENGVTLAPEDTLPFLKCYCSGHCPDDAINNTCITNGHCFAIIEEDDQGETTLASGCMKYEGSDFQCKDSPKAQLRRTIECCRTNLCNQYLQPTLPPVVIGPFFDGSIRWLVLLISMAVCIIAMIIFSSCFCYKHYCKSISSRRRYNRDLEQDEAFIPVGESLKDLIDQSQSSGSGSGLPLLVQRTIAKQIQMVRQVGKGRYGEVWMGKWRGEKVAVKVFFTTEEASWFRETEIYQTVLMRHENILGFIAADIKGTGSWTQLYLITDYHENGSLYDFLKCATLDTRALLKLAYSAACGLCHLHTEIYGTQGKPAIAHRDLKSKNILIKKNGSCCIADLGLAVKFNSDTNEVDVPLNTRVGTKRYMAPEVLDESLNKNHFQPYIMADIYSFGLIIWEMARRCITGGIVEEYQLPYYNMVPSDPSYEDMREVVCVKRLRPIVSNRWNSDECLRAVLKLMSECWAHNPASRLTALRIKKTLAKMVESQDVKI
Chain of ALK1 (P37023 22-503, species assumed): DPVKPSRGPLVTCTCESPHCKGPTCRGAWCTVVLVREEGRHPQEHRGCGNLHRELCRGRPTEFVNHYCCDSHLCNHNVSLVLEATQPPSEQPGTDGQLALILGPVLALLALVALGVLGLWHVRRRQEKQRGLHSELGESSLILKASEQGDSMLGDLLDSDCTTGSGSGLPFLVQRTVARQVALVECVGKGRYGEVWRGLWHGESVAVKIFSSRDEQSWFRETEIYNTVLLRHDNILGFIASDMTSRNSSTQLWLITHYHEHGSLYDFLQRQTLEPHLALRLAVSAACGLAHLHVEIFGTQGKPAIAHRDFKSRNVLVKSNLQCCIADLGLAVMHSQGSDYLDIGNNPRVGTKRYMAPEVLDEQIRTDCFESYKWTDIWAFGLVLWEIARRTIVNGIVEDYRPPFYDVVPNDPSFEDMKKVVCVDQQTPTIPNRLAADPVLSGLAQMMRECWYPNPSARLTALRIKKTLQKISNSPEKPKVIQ

Row | Compound | inhibition of ALK3 (ALK3) | inhibition of ALK1 (ALK1) | IC50 (ALK4) [nM] | inhibition of ALK2 (ALK2) | inhibition of ALK6 (ALK6) | inhibition of TGF-β-induced EMT (TGF-β-induced EMT) | cell morphology following secondary induction (human urine cells (HUC))
1 | Cc1cccc(-c2nn(C(=S)Nc3ccccc3)cc2-c2ccnc3ccccc23)n1 [A83-01, 3-(6-Methyl-2-pyridinyl)-N-phenyl-4-(4-quinolinyl)-1H-pyrazole-1-carbothioamide] | weakly inhibits | weakly inhibits | 12 | weakly inhibits | weakly inhibits | inhibit | 
2 | CC(C)[C@H]1C(=O)N[C@H](CO)Cc2c[nH]c3cccc(c23)N1C [Indolactam V, (2S,5S)-1,2,4,5,6,8-Hexahydro-5-(hydroxymethyl)-1-methyl-2-(1-methylethyl)-3H-pyrrolo[4,3,2-gh]-1,4-benzodiazonin-3-one] |  |  |  |  |  |  | some cells appeared to have an islet cell morphology
